The results in this text go back to patent US20120277286A1, “COMPOSITIONS AND METHODS FOR THE TREATMENT OR PREVENTION OF MITOCHONDRIAL DISEASES” (The Government of the USA, as represented by the Secretary, …, priority 2009, published 2012).

One assay deals with M17 cells. Put plainly: Mitochondrial mass by Mitotracker Green staining. Conditions: control shRNA (CCCP line) or PINK1 shRNA. It counts as cell-based, human. Here is the method: To test whether PINK1 expression affects mitochondrial turnover in the presence of endogenous levels of Parkin, the control shRNA and PINK1 shRNA M17 cells (which express moderate levels of Parkin) were treated with DMSO or CCCP for 24 hours and measured their relative mitochondrial mass by Mitotracker Green (MTG) staining and flow cytometry. MTG, a sensitive measure of mitochondrial mass, stains mitochondrial lipid in a membrane potential independent manner and has been used to measure mitochondrial mass of depolarized mitochondria previously (Hristova et al., J Biol Chem. In press; Whitworth et al., Dis Model Mech 1: 168-174, 2008). […] To more directly assay mitochondrial turnover in control and PINK1 shRNA M17 cells, the cells were pulsed with MTG and loss of MTG intensity was tracked at 0, 16, and 24 hours in the presence of CCCP. Consistent with the hypothesis that endogenous PINK1 promotes the degradation of depolarized mitochondria, Mitotracker Green intensity decreased more slowly in PINK1 shRNA cells when compared with control shRNA cells, treated with CCCP (0.58±0.07 vs. 0.33±0.07 relative MTG intensity at 24 hours) (FIG. 12F).

A further assay concerns rat cortical neurons. Put plainly: Endogenous Parkin in heavy membrane pellet, Western blot. Format: cell-based. Conditions: CCCP 5 hours. The procedure:
HeLa cells stably expressing YFP-Parkin using the Flp-In system (Invitrogen) were creating according to the manufacturer's instructions and maintained in 300 μg/ml hygromycin (Sigma-Aldrich). Rat cortical neurons were isolated on embryonic day 18 and grown in neurobasal media supplemented with B-27, L-glutamine, and penicillin/streptomycin. All cell culture materials were obtained from Invitrogen and all chemicals were obtained from Sigma-Aldrich. Chemicals were prepared from DMSO stock solutions, except paraquat, N-acetyl-cysteine, and 3-methyladenine, which were added fresh to media. Mfn1−/−, Mfn2−/− and Mfn1−/−, Mfn2−/− double knockout MEFs were generously donated by D. C. […]
Image contrast and brightness were adjusted in Photoshop (Adobe). Colocalization was assessed with line scans using MetaMorph (MDS Analytical Technologies). For analysis of mitochondrial membrane potential in cells, mitochondrial voxels in each image (the cytochrome c channel threshold was ≧400 au) were segregated into Parkin-positive (the YFP-Parkin channel threshold was ≧1,100 au) or Parkin-negative subsets, and MitoTracker intensity for each voxel was measured using Volocity software (Improvision). For each cell, the mean MitoTracker intensity per voxel was calculated for the Parkin-positive and Parkin-negative subsets. […]
On the technique in general: In western blotting, separated proteins are transferred to a membrane and probed.

A further assay relates to HeLa cells. In words: Parkin in mitochondria-rich membrane fraction, immunoblot. Conditions: HeLa, CCCP 1 hr, Western blotting. Format: cell-based.
Source text: (§1) For PINK1 experiments, cells were fractionated using the Mitochondria Isolation Kit (Pierce), according to manufacturer's specifications with slight modifications. To isolate integral membrane proteins, membrane fractions obtained as above were carbonate extracted with 0.1M Na2CO3 fresh cold buffer and membranes were pelleted, as described in the supplemental methods. For Parkin experiments, cells were fractionated as described previously, with minor modifications described in the supplemental methods (Narendra (2008) J Cell Biol 183: 795-803). The following primary antibodies were used: anti-Parkin (PRK8) monoclonal (Santa Cruz), anti-Tom20 polyclonal (Santa Cruz), anti-cytochrome c monoclonal (BD Biosciences), anti-PINK1 polyclonal (Novus Biologicals), anti-VDAC monoclonal (Calbiochem), anti-GAPDH polyclonal (Sigma-Aldrich), anti-Tubulin monoclonal (Sigma-Aldrich), anti-V5 monoclonal (Invitrogen), anti-GFP polyclonal (Invitrogen).
as §1, with “with slight modifications described in the supplemental methods. To isolate” for “with slight modifications. To isolate”, “minor modifications detailed in the” for “minor modifications described in the”, “supplemental methods (Narendra (2008) J Cell Biol 183: 795-803). The protease protection assay was performed as described previously (Chen (2005) J Biol Chem 280: 26185-26192). Cells were fixed and immunostained as described previously (Narendra (2008)” for “supplemental methods (Narendra (2008)”, “anti-GFP polyclonal (Invitrogen), anti-TIM23 monoclonal (BD Biosciences), and anti-Hsp60 monoclonal (Stressgen).” for “anti-GFP polyclonal (Invitrogen).”

Regarding `N#CC(C#N)=NNc1cccc(Cl)c1` [CCCP, carbonyl cyanide m-chlorophenylhydrazone], the “relative MTG intensity” value in the assay with M17 cells (M17 cells pulsed with MTG, CCCP, at 24 hours) came out at 0.33±0.07. In addition, in the assay with M17 cells (M17 cells, 24 hours, MTG flow cytometry), the “change in mitochondrial mass, CCCP vs. DMSO” value was −22.4±12.6%. Further, the “endogenous Parkin level in the membrane pellet” value in the assay on rat cortical neurons was “increased levels in the membrane pellet”.

B1: YFP-Parkin: YFP-tagged Parkin E3 ligase expressed from a transfected vector (protein, UniProt O60260 1-465, looked up)
E3 ubiquitin-protein ligase …: MIVFVRFNSSHGFPVEVDSDTSIFQLKEVVAKRQGVPADQLRVIFAGKELRNDWTVQNCDLDQQSIVHIVQRPWRKGQEMNATGGDDPRNAAGGCEREPQSLTRVDLSSSVLPGDSVGLAVILHTDSRKDSPPAGSPAGRSIYNSFYVYCKGPCQRVQPGKLRVQCSTCRQATLTLTQGPSCWDDVLIPNRMSGECQSPHCPGTSAEFFFKCGAHPTSDKETSVALHLIATNSRNITCITCTDVRSPVLVFQCNSRHVICLDCFHLYCVTRLNDRQFVHDPQLGYSLPCVAGCPNSLIKELHHFRILGEEQYNRYQQYGAEECVLQMGGVLCPRPGCGAGLLPEPDQRKVTCEGGNGLGCGFAFCRECKEAYHEGECSAVFEASGTTTQAYRVDERAAEQARWEAASKETIKKTTKPCPRCHVPVEKNGGCMHMKCPQPQCRLEWCWNCGCEWNRVCMGDHWFDV
modifications: YFP fusion
notes: YFP-tagged Parkin E3 ligase expressed from a transfected vector
As to B1, the “translocation of YFP-Parkin variant to mitochondria-rich membrane fraction” value in the assay with HeLa cells was “increase”.
